Tests used:
Format in all cases: cell-based
[1] = system: HeLa, PSN1, MiaPaca cells; assay: Radiosensitivity assays of FIGS. 8 to 12 (clonogenic survival, foci, cell cycle)
Method: Small scale clonogenic survival assays were performed on HeLa cells treated with the different ATR inhibitors at increasing concentrations followed by irradiation at 6 Gy. Data is plotted as decrease in clonogenic survival in relation to the DMSO-treated cells for both irradiated (SF 6 Gy, pink line) and unirradiated cells (plating efficiency, PE; blue line). A high degree of increased radiosensitivity can be seen as a large decrease in survival after irradiation accompanied by a small decrease in unirradiated survival at a specific drug concentration.
FIG. 9. […] PSN1 and MiaPaca cells were plated at low densities, treated with the drugs indicated and assessed for clonogenic survival. • B) Clonogenic survival of PSN1, MiaPaca, and MRCS cells pretreated with Compounds 821, 822, 823 and 824 drugs followed by irradiation. Cells were plated at low densities, treated with drugs indicated 1 h prior to irradiation and assessed for clonogenic survival.
MiaPaca cells were plated at low densities and drug was added at various time points in relation to the 4 Gy radiation treatment: 1 h prior to IR, 5 min after IR, 2 h or 4 h after IR; and removed at various time points. […] Clonogenic survival was assessed after 14 days. […]
FIG. 11. […] The percentage of cells containing more than a certain number of foci was quantitated. • B) Time course of DNA damage foci. […]

[2] = system: phosphorylation of Chk1 (Ser 345); assay: Western blot analysis of Chk1 inhibition; details: 1 μM VE-821; after gemcitabine (100 nM), radiation (6 Gy) or both; FIG. 1 panel A
Method: Cells were treated with 100 nM gemcitabine for 1 h, 1 μM VE-821 was added 1 h later and cells were irradiated (6 Gy) 1 h after that. Drugs were left for the duration of the experiment and cells were lysed at 2 h post-irradiation and subjected to Western blot analysis. MiaPaCa-2 and PSN-1 cells were exposed to gemcitabine and/or 1 μM VE-821 drug 1 h prior to irradiation with a single dose of 6 Gy. Cells were lysed in RIPA buffer 2 h post-irradiation and subjected to SDS-PAGE electrophoresis and immunoblotting. Chemoluminescence (SuperSignal, Millipore) and film exposure was used to detect antibody binding. Exposed film was digitized and figures were assembled using Microsoft PowerPoint.

[3] = system: panel of 35 human lung cancer cell lines; assay: Lung cancer cell screen, CellTiter-Glo cell viability assay; details: 96 hours
Method: All cell lines were seeded in 30 μl of tissue culture medium containing 10% FBS into 384-well opaque-bottom assay plates. The seeding density was based on the logarithmic growth rate of each cell line. After 24 hours, compound stock solutions were added to each well to afford a matrix consisting of 5 concentrations for VE-822 and 6 concentrations for chemotoxics. Each well contains either, agent alone or a combination of both agents. The final concentration range for VE-822 was 25 nM-2 μM. The concentration ranges for the chemotoxics were as follows: Etoposide, 10 nM-10 μM; Gemcitabine, 0.16 nM-160 nM; Cisplatin, 20 nM-20 μM; Oxaliplatin, 40 nM-40 μM; Irinotecan (SN-38), 0.12 nM-120 nM. The cells were then incubated for 96 hours at 37° C. in an atmosphere of 5% CO2 and 95% humidity.
This assay measures the number of viable cells in a culture based on the quantitation of ATP, which is present in metabolically active cells.
CellTiter-Glo Reagent (Promega, Madison, Wis., USA) was prepared according to the manufacturer's instructions and added 96 hours after compound addition (25 μl/well) to measure cell viability. Luminescence signal was measured with the PHERAStarFS (BMG Labtech, Cary, N.C., USA) automated plate reader. […]
Raw luminescence CellTiter-Glo (CTG) values were normalized to the mean CTG value for the negative control DMSO-treated samples on each assay plate. […]

| Compound | sensitization of cancer cells to radiation therapy [1] | phosphorylation of Chk1 (Ser 345) [2] | synergy with chemotoxics across lung cancer cell lines ([3]; maximum shift in IC50 of each chemotoxic, FIG. 16) | synergy (shift in IC50 of chemotoxic) in lung cancer cell lines ([3]; with cisplatin, etoposide, gemcitabine, oxaplatin and irinotecan, FIG. 17) |
| --- | --- | --- | --- | --- |
| CS(=O)(=O)c1ccc(-c2cnc(N)c(C(=O)Nc3ccccc3)n2)cc1 [VE-821] | sensitize cancer cells to radiation therapy | inhibits phosphorylation of Chk1 (Ser 345) |  |  |
| CNCc1ccc(-c2cc(-c3nc(-c4ccc(S(=O)(=O)C(C)C)cc4)cnc3N)on2)cc1 [VE-822] | sensitize cancer cells to radiation therapy |  | Synergizes with Chemotoxics | greater than 3 fold |
